# According to patent publication US8916555B2, “3,5-diaminopyrazole kinase inhibitors” (Axikin Pharmaceuticals, Inc., priority 2012, dated 2014):
# Target: T1, kinase domain protein of RC kinase (Homo sapiens, UniProt Q56UN5)
# T1 sequence (Q56UN5 1061-1324 limits assumed): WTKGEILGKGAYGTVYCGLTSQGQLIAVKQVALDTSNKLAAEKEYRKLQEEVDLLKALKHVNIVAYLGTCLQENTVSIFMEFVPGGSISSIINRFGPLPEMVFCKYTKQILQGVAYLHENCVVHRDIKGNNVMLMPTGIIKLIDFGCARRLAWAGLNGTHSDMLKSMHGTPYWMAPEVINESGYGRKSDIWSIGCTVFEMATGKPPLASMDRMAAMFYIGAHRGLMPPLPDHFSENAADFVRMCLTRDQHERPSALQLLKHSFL
# Assay: Enzymatic assay for kinase inhibitory activity (Crebtide substrate, LANCE readout), kinase domain protein
# Assay type: biochemical
# Settings: test compound 1 μM, ATP 1 μM, Crebtide 50 nM
# Experimental: Solutions of a test compound, Crebtide (a substrate), a kinase, and ATP were prepared using 1×MAPK Buffer (50 mM HEPES, 1 mM EGTA, […], 10 mM MgCl2, 2 mM DTT, and 0.01% Tween 20).
# To each well, the test compound (1 μL) was first added (in duplicate) to reach a final concentration of 1 μM or 1×IC50 of the compound. The kinase (5 μL) was then added to each well to reach a final concentration of […] for the kinase domain or […] for the full-length domain. Each plate included a positive and negative controls in duplicate wells. Crebtide (2.5 μL) was then added to each well in duplicate to reach a final concentration of 50 nM. If the full-length kinase was used, the plates were incubated for 45 min at room temperature before proceeding further. ATP (2.5 μL) was added to each well to reach a final concentration of 1 μM for the kinase domain and 3 μM for the full-length.
# After the addition of ATP, the plates were incubated for 45 min at room temperature. During the incubation, an EDTA solution (40 mM) and anti-Crebtide ([…]) were prepared. Additionally, a detection buffer stock solution was diluted ten fold before use.
# After the incubation, the anti-Crebtide (5 μL) and EDTA (5 μL) were added to each well to reach their final concentrations of […] and 10 mM, respectively. The plates were allowed to develop at room temperature for 45 min. The plates were then read at 665 nm and 615 nm using Perkin Elmer Lance machine.
# The biological results of inhibition of the kinase domain protein of RC kinase are summarized in Tables 2 and 3, wherein A represents at least 50% inhibition of the RC kinase activity at 1 μM; B represents no greater than 50% but at least 20% inhibition of the RC kinase activity at 1 μM; C represents no greater than 20% but at least 5% inhibition of the RC kinase activity at 1 μM; and D represents no greater than 5% inhibition of the RC kinase activity at 1 μM.
SMILES,inhibition at 1 µM [%],Activity (inhibition of the RC kinase activity at 1 μM)
"N#Cc1c(Nc2cccc(Cl)c2)n[nH]c1NCc1ccc(Oc2nccc(C(F)(F)F)n2)cc1 [Compound C1, 3-((3-chlorophenyl)amino)-5-((4-((4-(trifluoromethyl)pyrimidin-2-yl)oxy)benzyl)amino)-1H-pyrazole-4-carbonitrile]",5 to 20,–
N#Cc1c(Nc2cccc(Cl)c2)n[nH]c1NCc1ccc(Oc2ccc(C(F)(F)F)cn2)cc1 [Compound C2],–,B (no greater than 50% but at least 20% inhibition of the RC kinase activity at 1 μM)
Cn1nc(CSc2ccccc2)c(CNc2[nH]nc(Nc3cccc(Cl)c3)c2C#N)c1Cl [Compound C3],5 to 20,–
N#Cc1c(Nc2cccc(Cl)c2)n[nH]c1NCc1cccn1S(=O)(=O)c1ccccc1 [Compound C4],5 to 20,–
"N#Cc1c(Nc2cccc(Cl)c2)n[nH]c1NCc1ccc(S(F)(F)(F)(F)F)cc1 [Compound C5, 3-((3-chlorophenyl)amino)-5-((4-pentafluorothiobenzyl)amino)-1H-pyrazole-4-carbonitrile]",5 to 20,–
N#Cc1c(Nc2cccc(Cl)c2)n[nH]c1NCc1ccc(OCc2ccc(F)cc2)cc1 [Compound C6],20 to 50,–
N#Cc1c(Nc2cccc(Cl)c2)n[nH]c1NCc1ccc(-n2cnc3ccccc32)cc1 [Compound C7],5 to 20,–
N#Cc1c(Nc2cccc(Cl)c2)n[nH]c1NCc1c[nH]c2c(F)c(F)c(F)c(F)c12 [Compound C8],5 to 20,–
Cn1nc(C(F)(F)F)c(CNc2[nH]nc(Nc3cccc(Cl)c3)c2C#N)c1Cl [Compound C9],≤ 5,–
N#Cc1c(Nc2cccc(Cl)c2)n[nH]c1NCc1ccc(OC(F)(F)F)c(F)c1 [Compound C10],≤ 5,–
N#Cc1c(Nc2cccc(Cl)c2)n[nH]c1NCc1nc(-c2ccccc2)[nH]c1Cl [Compound C11],≤ 5,–
N#Cc1c(Nc2cccc(Cl)c2)n[nH]c1NCc1ccc(-c2ccc(Cl)cc2)o1 [Compound C12],≤ 5,–
CN1CCN(c2ccc(CNc3[nH]nc(Nc4cccc(Cl)c4)c3C#N)cc2)CC1 [Compound C13],≤ 5,–
COc1ccc(C(F)(F)F)cc1CNc1[nH]nc(Nc2cccc(Cl)c2)c1C#N [Compound C14],≤ 5,–
N#Cc1c(Nc2cccc(Cl)c2)n[nH]c1NCc1ccc(N2CCOCC2)nc1 [Compound C15],≤ 5,–
N#Cc1c(Nc2cccc(Cl)c2)n[nH]c1NCc1ccc(-c2ccccn2)s1 [Compound C16],≤ 5,–
"N#Cc1c(Nc2cccc(Cl)c2)n[nH]c1NCc1ccc(OC(F)F)c(O)c1 [Compound C17, 3-((3-chlorophenyl)amino)-5-((4-(difluoromethoxy)-3-hydroxybenzyl)amino)-1H-pyrazole-4-carbonitrile]",≤ 5,–
N#Cc1c(Nc2cccc(Cl)c2)n[nH]c1NCc1ccc(-n2cncn2)cc1 [Compound C20],5 to 20,–
NC(=O)c1c(Nc2cccc(Cl)c2)n[nH]c1NCc1ccc(Cl)nc1 [Compound D6],5 to 20,–
"NC(=O)c1c(Nc2cccc(Cl)c2)n[nH]c1NCc1ccc(Oc2ncccn2)cc1 [Compound D11, 3-((3-chlorophenyl)amino)-5-((4-(pyrimidin-2-yloxy)benzyl)amino)-1H-pyrazole-4-carboxamide]",–,A (at least 50% inhibition of the RC kinase activity at 1 μM)
COc1cccc(C(=O)Nc2ccc(Nc3n[nH]c(NCc4ccc(O)cc4)c3C(N)=O)cc2)c1 [Compound D145],–,A (at least 50% inhibition of the RC kinase activity at 1 μM)
NC(=O)c1c(Nc2ccc(NC(=O)c3ccccc3OC(F)(F)F)cc2)n[nH]c1NCc1ccc(O)cc1 [Compound D147],–,A (at least 50% inhibition of the RC kinase activity at 1 μM)

# The next lines start with results.
inhibition at 1 µM [%],SMILES,Activity (inhibition of the RC kinase activity at 1 μM)
5 to 20,"N#Cc1c(Nc2cccc(Cl)c2)n[nH]c1NCc1ccc(OCCO)cc1 [Compound C21, 3-((3-chlorophenyl)amino)-5-((4-(2-hydroxyethoxy)benzyl)amino)-1H-pyrazole-4-carbonitrile]",–
≤ 5,COc1ccc(CNc2[nH]nc(Nc3cccc(Cl)c3)c2C#N)c(C)c1C [Compound C22],–
20 to 50,N#Cc1c(Nc2cccc(Cl)c2)n[nH]c1NCc1c(O)cccc1Cl [Compound C25],–
≤ 5,"N#Cc1c(Nc2cccc(Cl)c2)n[nH]c1NCc1cccnc1Cl [Compound C28, 3-((3-chlorophenyl)amino)-5-(((2-chloropyridin-3-yl)methyl)amino)-1H-pyrazole-4-carbonitrile]",–
5 to 20,"Cc1cc(F)ccc1CNc1[nH]nc(Nc2cccc(Cl)c2)c1C#N [Compound C29, 3-((3-chlorophenyl)amino)-5-((4-fluoro-2-methylbenzyl)amino)-1H-pyrazole-4-carbonitrile]",–
5 to 20,Cc1ccc(CNc2[nH]nc(Nc3cccc(Cl)c3)c2C#N)c(O)c1 [Compound C30],–
20 to 50,Cc1cc(CNc2[nH]nc(Nc3cccc(Cl)c3)c2C(N)=O)cc(C)c1O [Compound D8],–
20 to 50,"NC(=O)c1c(Nc2cccc(Cl)c2)n[nH]c1NCc1cccn1S(=O)(=O)c1ccccc1 [Compound D18, 3-((3-chlorophenyl)amino)-5-(((1-(phenylsulfonyl)-1H-pyrrol-2-yl)methyl)amino)-1H-pyrazole-4-carboxamide]",–
≤ 5,"NC(=O)c1c(Nc2cccc(Cl)c2)n[nH]c1NCc1c[nH]c2c(F)c(F)c(F)c(F)c12 [Compound D22, 3-((3-chlorophenyl)amino)-5-(((4,5,6,7-tetrafluoro-1H-indol-3-yl)methyl)amino)-1H-pyrazole-4-carboxamide]",–
5 to 20,COc1cc(OC)c(OC)cc1CNc1[nH]nc(Nc2cccc(Cl)c2)c1C(N)=O [Compound D58],–
5 to 20,"NC(=O)c1c(Nc2cccc(Cl)c2)n[nH]c1NCc1ccc([N+](=O)[O-])cc1 [Compound D74, 3-((3-chlorophenyl)amino)-5-((4-nitrobenzyl)amino)-1H-pyrazole-4-carboxamide]",–
5 to 20,Cc1cc(C)cc(CNc2[nH]nc(Nc3cccc(Cl)c3)c2C(N)=O)c1 [Compound D78],–
≥ 50,"NC(=O)c1c(Nc2ccc(-n3cccn3)cc2)n[nH]c1NCc1ccc(O)cc1 [Compound D79, 3-((4-(1H-pyrazol-1-yl)phenyl)amino)-5-((4-hydroxybenzyl)amino)-1H-pyrazole-4-carboxamide]",–
≥ 50,"NC(=O)c1c(Nc2ccc(Cc3ccccc3)cc2)n[nH]c1NCc1ccc(O)cc1 [Compound D83, 3-((4-benzylphenyl)amino)-5-((4-hydroxybenzyl)amino)-1H-pyrazole-4-carboxamide]",–
≥ 50,NC(=O)c1c(Nc2ccc(-c3cc[nH]n3)cc2)n[nH]c1NCc1ccc(O)cc1 [Compound D84],–
≤ 5,NC(=O)c1c(Nc2cccc(Cl)c2)n[nH]c1NCc1ccc(O)nc1 [Compound D86],–
≤ 5,COc1ncc(CNc2[nH]nc(Nc3cccc(Cl)c3)c2C(N)=O)cn1 [Compound D87],–
20 to 50,CC1CCN(C2CCN(c3n[nH]c(NCc4ccc(O)cc4)c3C(N)=O)CC2)CC1 [Compound D88],–
≥ 50,COc1ccc(C(=O)Nc2ccc(Nc3n[nH]c(NCc4ccc(O)cc4)c3C(N)=O)cc2)cc1OC [Compound D129],–
≥ 50,NC(=O)c1c(Nc2ccc(NC(=O)c3cccc(Cl)c3)cc2)n[nH]c1NCc1ccc(O)cc1 [Compound D130],–
20 to 50,"NC(=O)c1c(NC2CCCCC2)n[nH]c1NCc1ccc(O)cc1 [Compound D133, 3-(cyclohexylamino)-5-((4-hydroxybenzyl)amino)-1H-pyrazole-4-carboxamide]",–
≥ 50,"NC(=O)c1c(Nc2ccc(CN3CCOCC3)cc2)n[nH]c1NCc1ccc(O)cc1 [Compound D134, 5-((4-hydroxybenzyl)amino)-3-((4-(morpholinomethyl)phenyl)amino)-1H-pyrazole-4-carboxamide]",–
20 to 50,"Cc1ccc(S(=O)(=O)Nc2ccc(Nc3n[nH]c(NCc4ccc(O)cc4)c3C(N)=O)cc2)cc1 [Compound D136, 5-((4-hydroxybenzyl)amino)-3-((4-(4-methylphenylsulfonamido)phenyl)amino)-1H-pyrazole-4-carboxamide]",–
≤ 5,NC(=O)c1c(Nc2cccc(Cl)c2)n[nH]c1NCc1c[nH]nc1-c1ccc(F)cc1 [Compound D166],–

# System: not given
# Assay: not given
# Settings: not given
row,melting point [°C],SMILES
1,62 to 72,N#Cc1c(Nc2cccc(Cl)c2)n[nH]c1NCc1ccc(Oc2ccc(C(F)(F)F)cn2)cc1 [Compound C2]
2,100 to 104,Cn1nc(CSc2ccccc2)c(CNc2[nH]nc(Nc3cccc(Cl)c3)c2C#N)c1Cl [Compound C3]
